The record followed here is patent US7799799B2, “Indolizine derivatives, method for preparing same, and therapeutic compositions comprising same” (Sanofi-Aventis, priority 2005, dated 2010).

Broadly, the solubility is how much of the substance goes into solution per volume. Low readings indicate little dissolved substance, high ones much dissolved substance.

The nature of the data set: Solubility test at pH=4 from phosphate buffer pH 6 0.1M, by HPLC. The class given is physicochemical. As to conditions: for solubility at 5 min: aqueous buffer, thermodynamic from solid, phosphate buffer pH 6 0.1M, HPLC, first figure of the S/pH cell, the pH of the sample is the second; for pH (of the solubility sample): second figure of the S/pH cell, pH noted for the solubility sample. How it is done: The results for solubility, S, and pH are shown in the table below and are expressed in mg/ml.
A phosphate buffer, pH6, 0.1M, was prepared by adding 6.15 ml of 0.1M Na2HPO4 to 43.85 ml of 0.1M NaH2PO4. The solution was made up to 100 ml with filtered water using a Millipore system (trade mark).
Reference (Test Product in a Concentration in which the Latter is Soluble and which Acts as an Internal Reference)
About 0.2 mg (in a boat) was weighed out exactly and diluted in 1 ml of H2O/CH3CN: (50:50), i.e. 0.2 mg/ml, then the sample was subjected to ultrasound for 5 minutes.
About 4 mg (in a boat) was weighed out exactly and diluted in 400 μl (i.e. 10 mg/ml) of pH6 phosphate buffer (0.1M), then the sample was subjected to ultrasound for 5 minutes.
The pH was noted and if the pH was below 4, 1 μl of NaOH 1N was added (from 1 μl in 1 μl) until the pH was more than 4, then the pH was noted again. The solution (0.45 μm) was filtered then if necessary diluted with the phosphate buffer pH6. (If the product re-precipitated after diluting, the diluted sample was ignored, the mother solution was used and the solubility was determined at a wavelength other than λmax, to avoid saturating the signal.
The solubility of the compound was then determined by HPLC under the following conditions:
Instrument: Agilent 1100 chromatograph
Column temperature: 30° C. Flow rate: 0.8 ml/min Detection: λ=230 nm Injection volume: 5 μl

Structures are written as SMILES. Where a name gives a salt, the structure may show the parent alone.

For the molecule `CCCCc1cc2ccccn2c1C(=O)c1ccc(CCCN(C)C)cc1.Cl` [compound 38, (2-butylindolizin-3-yl){4-[3-(dimethylamino)propyl]phenyl}methanone hydrochloride], the solubility at 5 min came to 1420 µg/mL. `CCc1cc2ccccn2c1C(=O)c1ccc(CCCCN(CC)CC)cc1.O=C(O)C(=O)O` [compound 5, {4-[4-(diethylamino)butyl]phenyl}(2-ethylindolizin-3-yl)methanone oxalate]: the solubility at 5 min was greater than 10000 µg/mL and the “pH (of the solubility sample)” value is recorded as 3.96. As to `CCCCc1cc2ccccn2c1C(=O)c1ccc(CCCN(CCC)CCCC)cc1` [compound 33, (2-butylindolizin-3-yl)(4-{3-[butyl(propyl)amino]propyl}phenyl)methanone oxalate], the solubility at 5 min was found to be 3880 µg/mL and the “pH (of the solubility sample)” value came out at 5.36. The like results for `CCCCc1cc2ccccn2c1C(=O)c1ccc(CCCN(CCCC)CCCC)cc1` [compound 17, (2-butylindolizin-3-yl){4-[3-(dibutylamino)propyl]phenyl}methanone hydrochloride] were, in that order, greater than 10000 µg/mL and 4.88. Take `CCc1cc2ccccn2c1C(=O)c1ccc(CCCN(CC)CC)cc1.O=C(O)C(=O)O` [compound 2, (2-ethylindolizin-3-yl){4-[3-(diethylamino)propyl]phenyl}methanone oxalate]: the solubility at 5 min was determined as 7470 µg/mL and the “pH (of the solubility sample)” value is 4.07. On to `CCCCc1cc2ccccn2c1C(=O)c1ccc(CCCCN(CCC)CCC)cc1` [compound 10, (2-butylindolizin-3-yl){4-[4-(dipropylamino)butyl]phenyl}methanone hydrochloride], for which the solubility at 5 min is greater than 10000 µg/mL and the “pH (of the solubility sample)” value amounted to 5.81. On the same counts, the results for `CCCc1cc2ccccn2c1C(=O)c1ccc(CCCN(CC)CC)cc1.Cl` [compound 3, {4-[3-(diethylamino)propyl]phenyl}(2-propylindolizin-3-yl)methanone hydrochloride] are greater than 10000 µg/mL and 5.82. On to `CCCN(CCC)CCCc1ccc(C(=O)c2c(C)cc3ccccn23)cc1` [compound 13, {4-[3-(dipropylamino)propyl]phenyl}(2-methylindolizin-3-yl)methanone hydrochloride], for which the solubility at 5 min is 1610 µg/mL and the “pH (of the solubility sample)” value came out at 7.2. `CCCN(CC)CCCc1ccc(C(=O)c2c(C(C)C)cc3ccccn23)cc1` [compound 25, (4-{3-[ethyl(propyl)amino]propyl}phenyl)(2-isopropylindolizin-3-yl)methanone hydrochloride]: the solubility at 5 min is 1710 µg/mL and the “pH (of the solubility sample)” value is recorded as 6.4. On to `CCCCc1cc2ccccn2c1C(=O)c1ccc(CCCCN(CC)CC)cc1.O=C(O)C(=O)O` [compound 4, (2-butylindolizin-3-yl){4-[4-(diethylamino)butyl]phenyl}methanone oxalate], for which the solubility at 5 min was greater than 10000 µg/mL and the “pH (of the solubility sample)” value is 4.10. The like results for `CCCCc1cc2ccccn2c1C(=O)c1ccc(CCCN(CC)CC)cc1.Cl` [compound 1, (2-butylindolizin-3-yl){4-[3-(diethylamino)propyl]phenyl}methanone hydrochloride] were, in that order, 8810 µg/mL and 5.4. The like results for `CCCN(CCC)CCCc1ccc(C(=O)c2c(CC)cc3ccccn23)cc1` [compound 8, {4-[3-(dipropylamino)propyl]phenyl}(2-ethylindolizin-3-yl)methanone hydrochloride] were, in that order, 8600 µg/mL and 5.82. On the same counts, the results for `CCCCc1cc2ccccn2c1C(=O)c1ccc(CCCCN(CC)CCC)cc1` [compound 30, (2-butylindolizin-3-yl)(4-{4-[ethyl(propyl)amino]butyl}phenyl)methanone hydrochloride] are greater than 10000 µg/mL and 5.85. On to `CCCCc1cc2ccccn2c1C(=O)c1ccc(CCCN(CCC)CC2CC2)cc1` [compound 35, (2-butylindolizin-3-yl)(4-{3-[(cyclopropylmethyl)(propyl)amino]propyl}phenyl)methanone hydrochloride], for which the solubility at 5 min was 4400 µg/mL and the “pH (of the solubility sample)” value amounted to 4.75. The like results for `CCCCc1cc2ccccn2c1C(=O)c1ccc(CCCN(CCOC)CCOC)cc1` [compound 41, (4-{3-[bis(2-methoxyethyl)amino]propyl}phenyl)(2-butylindolizin-3-yl)methanone oxalate] were, in that order, 7190 µg/mL and 3.95. On to `CCCCc1cc2ccccn2c1C(=O)c1ccc(CCCNCCC)cc1.Cl` [compound 37, (2-butylindolizin-3-yl){4-[3-(propylamino)propyl]phenyl}methanone hydrochloride], for which the solubility at 5 min is 1780 µg/mL and the “pH (of the solubility sample)” value was 7.14. Consider `CCCCc1cc2ccccn2c1C(=O)c1ccc(CCCN(CCC)CCC)cc1` [compound 7, (2-butylindolizin-3-yl){4-[3-(dipropylamino)propyl]phenyl}methanone hydrochloride], for which the solubility at 5 min was 8570 µg/mL and the “pH (of the solubility sample)” value is 5.65. The like results for `CCCCN(CCCC)CCCc1ccc(C(=O)c2c(CCC)cc3ccccn23)cc1` [compound 19, {4-[3-(dibutylamino)propyl]phenyl}(2-propylindolizin-3-yl)methanone hydrochloride] were, in that order, 4070 µg/mL and 5.27.

Take `CCCN(CC)CCCCc1ccc(C(=O)c2c(CC)cc3ccccn23)cc1` [compound 31, (2-ethylindolizin-3-yl)(4-{4-[ethyl(propyl)amino]butyl}phenyl)methanone oxalate]: the solubility at 5 min was greater than 10000 µg/mL and the “pH (of the solubility sample)” value is on record as 4.05. The like results for `CCCc1cc2ccccn2c1C(=O)c1ccc(CCCCN(CCC)CCC)cc1` [compound 16, {4-[4-(dipropylamino)butyl]phenyl}(2-propylindolizin-3-yl)methanone hydrochloride] were, in that order, greater than 10000 µg/mL and 5.81.

In the case of `CCCCc1cc2ccccn2c1C(=O)c1ccc(CCCN(CC)CCC)cc1` [compound 23, (2-butylindolizin-3-yl)(4-{3-[ethyl(propyl)amino]propyl}phenyl)methanone hydrochloride], the solubility at 5 min is greater than 10000 µg/mL and the “pH (of the solubility sample)” value is on record as 6.06. As for `CCCCc1cc2ccccn2c1C(=O)c1ccc(CCCN2C[C@@H](C)N[C@@H](C)C2)cc1` [compound 39, (2-butylindolizin-3-yl)(4-{3-[(3R,5S)-3,5-dimethylpiperazin-1-yl]propyl}phenyl)methanone hydrochloride], the solubility at 5 min was greater than 10000 µg/mL and the “pH (of the solubility sample)” value came to 4.22.

As to `CCCc1cc2ccccn2c1C(=O)c1ccc(CCCCN(CC)CC)cc1.Cl` [compound 6, {4-[4-(diethylamino)butyl]phenyl}(2-propylindolizin-3-yl)methanone hydrochloride], the solubility at 5 min is greater than 10000 µg/mL and the “pH (of the solubility sample)” value is given as 5.79.
